Source: paper PMC8537386, “The Specificity and Broad Multitarget Properties of Ligands for the Free Fatty Acid Receptors FFA3/GPR41 and FFA2/GPR43 and the Related Hydroxycarboxylic Acid Receptor HCA2/GPR109A” (Pharmaceuticals, 2021)

Tests used:
[1] = target: T1, FFA3/GPR41 (Homo sapiens, UniProt O14843); set-up: method as in PMID 32141297; settings: described in the literature; cited from earlier work
T1 construct: host or cells: Flp-In-293
T1 sequence (O14843 1-346): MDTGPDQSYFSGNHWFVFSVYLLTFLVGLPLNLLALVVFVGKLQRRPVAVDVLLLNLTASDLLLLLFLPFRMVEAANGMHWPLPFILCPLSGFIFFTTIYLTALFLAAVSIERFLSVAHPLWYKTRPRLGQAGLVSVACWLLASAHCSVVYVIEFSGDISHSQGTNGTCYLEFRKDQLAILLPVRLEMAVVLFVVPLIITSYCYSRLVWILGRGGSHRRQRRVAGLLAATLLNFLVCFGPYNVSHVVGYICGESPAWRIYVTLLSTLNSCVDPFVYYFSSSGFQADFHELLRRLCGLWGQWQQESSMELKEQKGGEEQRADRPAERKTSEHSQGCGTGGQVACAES

[2] = test system: FFA2/GPR43 mRNA; test: FFA2/GPR43 gene expression in LPS-stimulated THP-1 macrophages (qRT-PCR); type: cell-based, human; settings: niacin 50 µM; 4 h LPS 1 µg/mL
Procedure: (§1) The human THP-1 monocyte cell line was obtained from ATCC (American Type Culture Collection). […] The THP-1 monocytes were stimulated to differentiate into macrophages with phorbol 12-myristate 13-acetate (PMA) (50 ng/mL) for 24 h. The medium was exchanged for PMA-free medium for 48 h before the cells were used for experiments.
(§2) The total RNA was isolated from THP-1 cells using TRIzol reagent, according to the manufacturer’s protocol. First-strand cDNA was synthesized from 2 µg of RNA using oligo(dT) primers with RevertAid H Minus kit (Thermo Fisher Scientific, USA). The qRT-PCR procedure was performed using ABsolute Blue QPCR SYBR Green Master Mix reagent (Thermo Fisher Scientific, USA) with a ViiA7 real-time PCR detection system (Applied Biosystems, USA). The primer pairs that were employed for HCA2/GPR109A were forward 5′-[…]-3′ and reverse 5′-[…]-3′; for FFA2/GPR43 were forward 5′-[…]-3′ and reverse 5′-[…]-3′; for FFA3/GPR41 were forward 5′-[…]-3′ and reverse 5′-[…]-3′; for IL-6 were forward 5′-[…]-3′ and reverse 5′-[…]-3′; for MCP-1 were forward 5′-[…]-3′ and reverse 5′-[…]-3′; for TNF-α were forward 5′-[…]-3′ and reverse 5′-[…]-3′; for RPS29 were forward 5′-[…]-3′ and reverse 5′- […]-3′. The mRNA levels were quantified and normalized to the levels of the reference gene RPS29 using the 2^−ΔΔCt method and presented as relative expression compared to the values for untreated cells.

[3] = test system: TNF-α mRNA; test: LPS-induced TNF-α gene expression in THP-1 macrophages (qRT-PCR); type: cell-based, human; settings: niacin 50 µM; 4 h LPS; LPS-treated cells = 100%
Procedure: as §1, §2

[4] = test system: MCP-1 mRNA; test: LPS-induced MCP-1 gene expression in THP-1 macrophages (qRT-PCR); type: cell-based, human; settings: niacin 50 µM; 4 h LPS; LPS-treated cells = 100%
Procedure: as §1, §2

[5] = test system: FFA3/GPR41 mRNA; test: FFA3/GPR41 gene expression in LPS-stimulated THP-1 macrophages (qRT-PCR); type: cell-based, human; settings: niacin 50 µM; 4 h LPS 1 µg/mL
Procedure: as §1, §2

| Compound | activity in the cAMP assay (in words) [1] | LPS-stimulated FFA2/GPR43 gene expression [2] | downregulation of LPS-induced TNF-α mRNA [3] | downregulation of LPS-induced MCP-1 mRNA [4] | LPS-stimulated FFA3/GPR41 gene expression [5] |
| --- | --- | --- | --- | --- | --- |
| 4-i-butylhexahydroquinoline methyl ester [compound 28] | no activity | – | – | – | – |
| O=C(O)c1cccnc1 [niacin, reference compound] | – | did not affect | 32 ± 3% | 29 ± 1% | did not affect |
